Experimental data from paper PMC7029851, “Antibacterial activity of novel dual bacterial DNA type II topoisomerase inhibitors” (PLoS ONE, 2020).
“And” between values parts separate entries of the source, which are not always exact repeats. Equal entries are not always repeated. Where two headings read alike, the source gives them in different places.

Tests used:
E. coli Topoisomerase IV = biological target: T1, E. coli Topoisomerase IV (Escherichia coli, UniProt P0AFI2); assay: E. coli topoisomerase IV decatenation gel assay; assay type: biochemical
T1 construct: purchased Inspiralis (Norwich, UK)
T1 sequence (P20083 whole entry): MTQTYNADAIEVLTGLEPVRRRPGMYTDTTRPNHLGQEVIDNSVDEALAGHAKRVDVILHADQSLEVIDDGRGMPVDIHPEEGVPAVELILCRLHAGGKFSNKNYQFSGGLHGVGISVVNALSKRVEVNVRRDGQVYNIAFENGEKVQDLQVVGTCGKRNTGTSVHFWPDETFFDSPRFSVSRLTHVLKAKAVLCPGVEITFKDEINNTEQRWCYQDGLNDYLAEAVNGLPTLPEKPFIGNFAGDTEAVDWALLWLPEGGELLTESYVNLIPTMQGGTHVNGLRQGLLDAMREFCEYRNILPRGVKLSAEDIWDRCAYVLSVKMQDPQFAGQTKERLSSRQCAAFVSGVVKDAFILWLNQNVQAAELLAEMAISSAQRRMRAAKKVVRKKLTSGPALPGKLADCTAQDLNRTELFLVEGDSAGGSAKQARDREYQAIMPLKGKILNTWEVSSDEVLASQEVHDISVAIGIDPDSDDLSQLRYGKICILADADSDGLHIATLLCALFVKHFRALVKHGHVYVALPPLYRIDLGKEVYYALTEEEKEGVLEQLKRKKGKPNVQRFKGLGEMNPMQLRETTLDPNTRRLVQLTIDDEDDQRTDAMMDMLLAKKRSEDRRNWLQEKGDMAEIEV
T1 sequence (P0AFI2 whole entry): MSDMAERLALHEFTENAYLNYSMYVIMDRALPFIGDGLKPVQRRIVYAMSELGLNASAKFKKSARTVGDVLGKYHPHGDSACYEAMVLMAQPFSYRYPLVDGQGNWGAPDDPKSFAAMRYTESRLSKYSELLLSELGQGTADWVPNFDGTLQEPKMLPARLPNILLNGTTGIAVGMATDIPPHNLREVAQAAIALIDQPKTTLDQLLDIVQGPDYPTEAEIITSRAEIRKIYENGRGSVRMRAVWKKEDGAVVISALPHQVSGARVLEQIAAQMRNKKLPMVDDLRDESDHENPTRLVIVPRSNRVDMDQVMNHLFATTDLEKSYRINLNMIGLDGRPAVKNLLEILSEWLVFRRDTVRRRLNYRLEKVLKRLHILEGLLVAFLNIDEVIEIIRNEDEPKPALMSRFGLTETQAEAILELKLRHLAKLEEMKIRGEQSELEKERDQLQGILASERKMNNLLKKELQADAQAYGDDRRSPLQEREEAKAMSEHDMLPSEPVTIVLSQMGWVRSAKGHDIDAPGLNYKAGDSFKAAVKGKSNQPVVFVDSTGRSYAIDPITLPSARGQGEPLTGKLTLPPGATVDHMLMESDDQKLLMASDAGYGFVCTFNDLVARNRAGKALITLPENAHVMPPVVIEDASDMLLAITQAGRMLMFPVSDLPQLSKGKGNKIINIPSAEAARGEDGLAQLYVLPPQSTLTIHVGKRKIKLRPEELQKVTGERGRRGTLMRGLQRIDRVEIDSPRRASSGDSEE
Procedure: (§1) S. aureus and E. coli DNA gyrase supercoiling and topo IV decatenation assay kits, as well as human topoisomerase II decatenation assay kits, were provided by Inspiralis (Norwich, UK). Assays were performed according to the manufacturer’s instructions. The compounds were serially diluted (1:3 dilutions starting from a 300 μM final concentration) and assayed in a reaction mixture to obtain concentration-response curves in two different replicate experiments. The final concentration of DMSO in the assays was 1% (v/v). The reactions were terminated by the addition of 30 μl chloroform/isoamyl alcohol (26:1) and 30 μl Stop Dye (40% sucrose, 100 mM Tris HCl pH 7.5, 1 mM EDTA, 0.5 μg/ml bromophenol blue), after which the samples were loaded onto a 1.0% TAE ([…]) gel that was then run at 80 V for 2 hours. DNA bands were visualized by ethidium bromide staining the gel for 10 minutes, which was then destained for 10 minutes in water and analysed using gel documentation equipment (Syngene, Cambridge, UK). The DNA in each band was quantitated using Syngene Gene Tools software. Raw gel data (fluorescent band volumes) were converted by the software to percentages of the control (the fully supercoiled or decatenated DNA band). […] The global curve fit non-linear regression tool was used to calculate the IC50 values. The results are expressed as the average values obtained after calculating the IC50 from each replicate run.

E. coli DNA gyrase = biological target: T2, E. coli DNA gyrase (Escherichia coli, UniProt P0AES4); assay: E. coli DNA gyrase supercoiling gel assay; assay type: biochemical
T2 construct: purchased Inspiralis (Norwich, UK)
Procedure: as §1

E. coli TolC- mutant = assay: microbe, parasite or virus in culture; assay type: cell-based; conditions: Escherichia coli
Procedure: (§2) The bacterial reference strains used in this study were purchased from ATCC (American Type Culture Collection) via LGC Standards (Middlesex, UK). […] Clinical MDR isolates were provided by Aptuit, the IHMA Europa Sàrl repository (Epalinges, Switzerland) and the Statens Serum Institute (Copenhagen, Denmark).
(§3) MICs were determined by the broth microdilution method (the agar dilution method was used only for N. gonorrhoeae) according to CLSI guidelines.

[1] = test system: N. gonorrhoeae ATCC 49226; assay: MIC, agar dilution; assay type: cell-based; conditions: Neisseria gonorrhoeae, ATCC49226; N. gonorrhoeae ATCC 49226, ciprofloxacin-susceptible
Procedure: as §3

[2] = test system: N. gonorrhoeae ATCC 19424; assay: MIC, agar dilution; assay type: cell-based; conditions: Neisseria gonorrhoeae, ATCC19424; N. gonorrhoeae ATCC 19424, ciprofloxacin-susceptible
Procedure: as §3

N. gonorrhoeae WHO L = assay: MIC, agar dilution; assay type: cell-based; conditions: Neisseria gonorrhoeae, ciprofloxacin-resistant
Procedure: as §3

N. gonorrhoeae WHO N = assay: MIC, agar dilution; assay type: cell-based; conditions: Neisseria gonorrhoeae, ciprofloxacin-resistant
Procedure: as §3

N. gonorrhoeae WHO K = assay: MIC, agar dilution; assay type: cell-based; conditions: Neisseria gonorrhoeae, ciprofloxacin-resistant
Procedure: as §3

[3] = test system: N. gonorrhoeae clinical isolates (n = 38); assay: microbe, parasite or virus in culture; assay type: cell-based, Neisseria gonorrhoeae; conditions: for MIC50 / MIC90: Neisseria gonorrhoeae
Procedure: as §2, §3
(§4) The results obtained using clinical isolates are reported as MIC50 and MIC90 values.

S. aureus ATCC 29213 = assay: MIC, broth microdilution; assay type: cell-based, Staphylococcus aureus; conditions: for MIC: Staphylococcus aureus, ATCC29213, S. aureus ATCC 29213, ciprofloxacin-susceptible
Procedure: as §3

Human Topoisomerase II = biological target: T3, Human Topoisomerase II (Homo sapiens, UniProt P11388); assay: Human topoisomerase II decatenation gel assay; assay type: biochemical
T3 construct: purchased Inspiralis (Norwich, UK)
Procedure: as §1

[4] = biological target: T4, S. aureus Topoisomerase IV (Staphylococcus aureus, UniProt P0C1U9); assay: S. aureus topoisomerase IV decatenation gel assay; assay type: biochemical
T4 construct: purchased Inspiralis (Norwich, UK)
T4 sequence (P0C1S7 whole entry): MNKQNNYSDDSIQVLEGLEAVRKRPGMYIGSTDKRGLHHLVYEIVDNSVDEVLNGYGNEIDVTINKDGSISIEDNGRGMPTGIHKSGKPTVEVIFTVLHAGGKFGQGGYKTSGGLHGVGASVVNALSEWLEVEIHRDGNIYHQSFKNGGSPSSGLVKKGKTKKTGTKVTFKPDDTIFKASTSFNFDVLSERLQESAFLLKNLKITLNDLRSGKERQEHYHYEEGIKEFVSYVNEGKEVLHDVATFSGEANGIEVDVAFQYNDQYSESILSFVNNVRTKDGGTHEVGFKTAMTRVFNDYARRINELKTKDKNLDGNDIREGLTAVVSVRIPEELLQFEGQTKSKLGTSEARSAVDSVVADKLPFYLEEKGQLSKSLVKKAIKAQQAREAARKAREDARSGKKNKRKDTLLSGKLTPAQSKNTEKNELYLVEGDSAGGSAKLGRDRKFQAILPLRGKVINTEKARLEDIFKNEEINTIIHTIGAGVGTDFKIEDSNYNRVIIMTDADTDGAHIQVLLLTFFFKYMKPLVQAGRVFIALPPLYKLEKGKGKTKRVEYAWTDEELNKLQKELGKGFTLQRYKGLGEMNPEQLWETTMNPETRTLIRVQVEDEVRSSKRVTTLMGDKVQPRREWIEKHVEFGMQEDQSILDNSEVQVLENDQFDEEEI
T4 sequence (P0C1U9 whole entry): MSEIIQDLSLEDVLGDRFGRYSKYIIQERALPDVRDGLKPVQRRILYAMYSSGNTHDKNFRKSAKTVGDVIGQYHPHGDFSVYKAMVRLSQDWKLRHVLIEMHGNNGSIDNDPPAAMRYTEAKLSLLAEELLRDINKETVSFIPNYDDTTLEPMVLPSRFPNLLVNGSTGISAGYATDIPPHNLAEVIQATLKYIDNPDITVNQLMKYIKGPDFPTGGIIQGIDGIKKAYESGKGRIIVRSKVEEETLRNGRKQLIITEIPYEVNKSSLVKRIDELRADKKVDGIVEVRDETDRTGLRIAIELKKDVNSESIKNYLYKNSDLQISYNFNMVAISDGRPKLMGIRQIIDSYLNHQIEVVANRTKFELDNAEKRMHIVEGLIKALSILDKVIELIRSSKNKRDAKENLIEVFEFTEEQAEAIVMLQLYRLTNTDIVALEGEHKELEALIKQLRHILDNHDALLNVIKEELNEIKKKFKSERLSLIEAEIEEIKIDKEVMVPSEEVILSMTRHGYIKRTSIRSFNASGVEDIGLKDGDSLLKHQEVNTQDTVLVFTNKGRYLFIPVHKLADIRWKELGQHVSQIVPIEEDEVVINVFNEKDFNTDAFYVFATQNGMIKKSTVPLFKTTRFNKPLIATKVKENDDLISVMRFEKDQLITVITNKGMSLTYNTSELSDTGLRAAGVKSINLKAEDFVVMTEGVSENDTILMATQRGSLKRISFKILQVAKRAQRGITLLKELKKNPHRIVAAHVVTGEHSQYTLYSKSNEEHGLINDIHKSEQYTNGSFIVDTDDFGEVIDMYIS
Procedure: as §1

S. aureus DNA gyrase = biological target: T5, S. aureus DNA gyrase (Staphylococcus aureus, UniProt P20831); assay: S. aureus DNA gyrase supercoiling gel assay; assay type: biochemical
T5 construct: purchased Inspiralis (Norwich, UK)
T5 sequence (P20831 whole entry): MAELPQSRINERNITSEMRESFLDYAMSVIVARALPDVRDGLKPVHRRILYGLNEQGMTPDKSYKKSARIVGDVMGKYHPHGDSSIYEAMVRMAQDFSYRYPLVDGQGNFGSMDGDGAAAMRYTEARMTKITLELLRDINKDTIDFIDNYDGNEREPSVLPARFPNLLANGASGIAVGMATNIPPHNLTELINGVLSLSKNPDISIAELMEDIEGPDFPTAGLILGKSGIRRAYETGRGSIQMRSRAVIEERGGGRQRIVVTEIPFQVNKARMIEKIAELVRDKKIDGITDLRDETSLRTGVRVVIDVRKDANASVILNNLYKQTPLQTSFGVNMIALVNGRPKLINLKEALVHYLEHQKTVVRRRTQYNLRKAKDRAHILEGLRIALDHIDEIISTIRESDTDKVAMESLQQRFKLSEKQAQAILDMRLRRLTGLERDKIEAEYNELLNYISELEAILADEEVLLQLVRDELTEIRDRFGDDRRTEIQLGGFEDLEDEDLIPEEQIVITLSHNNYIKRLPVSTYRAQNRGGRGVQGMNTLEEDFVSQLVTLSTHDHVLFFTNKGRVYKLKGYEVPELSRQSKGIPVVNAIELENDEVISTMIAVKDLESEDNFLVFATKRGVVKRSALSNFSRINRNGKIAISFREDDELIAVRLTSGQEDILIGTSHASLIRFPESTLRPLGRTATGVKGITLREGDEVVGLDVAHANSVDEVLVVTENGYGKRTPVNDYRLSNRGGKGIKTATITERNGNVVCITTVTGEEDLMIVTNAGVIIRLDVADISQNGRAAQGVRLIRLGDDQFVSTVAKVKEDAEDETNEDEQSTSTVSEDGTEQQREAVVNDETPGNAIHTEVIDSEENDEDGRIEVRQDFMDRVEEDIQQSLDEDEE
T5 sequence (P0A0K8 whole entry partner): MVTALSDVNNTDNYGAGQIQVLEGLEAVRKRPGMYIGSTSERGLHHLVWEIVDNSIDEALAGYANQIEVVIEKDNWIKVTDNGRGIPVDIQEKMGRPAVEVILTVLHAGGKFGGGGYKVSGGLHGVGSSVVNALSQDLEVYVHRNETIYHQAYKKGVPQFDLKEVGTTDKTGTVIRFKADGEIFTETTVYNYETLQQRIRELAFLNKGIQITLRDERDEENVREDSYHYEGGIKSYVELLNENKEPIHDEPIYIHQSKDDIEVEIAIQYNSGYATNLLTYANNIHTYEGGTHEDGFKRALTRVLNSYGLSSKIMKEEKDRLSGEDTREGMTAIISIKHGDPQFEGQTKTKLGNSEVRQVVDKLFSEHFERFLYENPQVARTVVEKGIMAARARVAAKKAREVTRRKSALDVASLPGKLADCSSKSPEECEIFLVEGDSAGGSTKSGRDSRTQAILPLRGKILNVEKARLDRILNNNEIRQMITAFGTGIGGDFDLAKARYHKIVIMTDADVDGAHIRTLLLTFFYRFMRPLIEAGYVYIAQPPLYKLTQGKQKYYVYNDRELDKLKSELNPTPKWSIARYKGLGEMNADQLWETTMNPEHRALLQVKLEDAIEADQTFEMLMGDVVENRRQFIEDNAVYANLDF
Procedure: as §1

[5] = test system: E. faecium clinical isolates (n = 12) vanA (6)/vanB (6); assay: MIC, multidrug-resistant clinical isolates; assay type: cell-based; conditions: Enterococcus faecium; for MIC: read-out: MIC range
Procedure: as §2, §3, §4

[6] = test system: E. faecalis clinical isolates (n = 12) vanA (6)/vanB (6); assay: MIC, multidrug-resistant clinical isolates; assay type: cell-based; conditions: Enterococcus faecalis; for MIC: read-out: MIC range
Procedure: as §2, §3, §4

S. aureus BAA-1720 = assay: MIC, broth microdilution; assay type: cell-based; conditions: Staphylococcus aureus, BAA1720; S. aureus BAA-1720, ciprofloxacin-resistant
Procedure: as §3

S. pneumoniae ATCC 49619 = assay: MIC, broth microdilution; assay type: cell-based; conditions: Streptococcus pneumoniae, ATCC49619; S. pneumoniae ATCC 49619, ciprofloxacin-susceptible
Procedure: as §3

H. influenzae ATCC 49766 = assay: MIC, broth microdilution; assay type: cell-based; conditions: Haemophilus influenzae, ATCC49766; H. influenzae ATCC 49766, ciprofloxacin-susceptible
Procedure: as §3

[7] = test system: K. pneumoniae ATCC 700603; assay: MIC, broth microdilution; assay type: cell-based; conditions: Klebsiella pneumoniae, ATCC700603; K. pneumoniae ATCC 700603, ciprofloxacin-susceptible
Procedure: as §3

E. coli ATCC 25922 = assay: MIC, broth microdilution; assay type: cell-based; conditions: Escherichia coli, ATCC25922; E. coli ATCC 25922, ciprofloxacin-susceptible
Procedure: as §3

E. faecalis ATCC 29212 = assay: MIC, broth microdilution; assay type: cell-based; conditions: Enterococcus faecalis, ATCC29212; E. faecalis ATCC 29212, ciprofloxacin-susceptible
Procedure: as §3

P. aeruginosa ATCC 27853 = assay: MIC, broth microdilution; assay type: cell-based; conditions: Pseudomonas aeruginosa, ATCC27853; P. aeruginosa ATCC 27853, ciprofloxacin-susceptible
Procedure: as §3

[8] = test system: K. pneumoniae AcrAB- mutant; assay: microbe, parasite or virus in culture; assay type: cell-based; conditions: Klebsiella pneumoniae
Procedure: as §2, §3

[9] = IC50 E. coli Topoisomerase IV decatenation (average), average of two replicate experiments
[10] = IC50 E. coli Topoisomerase IV decatenation, Assay 1, replicate Assay 1
[11] = IC50 E. coli Topoisomerase IV decatenation, Assay 2, replicate Assay 2
[12] = IC50 E. coli Gyrase Supercoiling (average), average of two replicate experiments
[13] = IC50 E. coli gyrase Supercoiling, Assay 1, replicate Assay 1
[14] = IC50 E. coli gyrase Supercoiling, Assay 2, replicate Assay 2
[15] = average of two replicate experiments, read-out: IC50 Human Topoisomerase II decatenation (average)
[16] = replicate Assay 1, read-out: IC50 Human Topoisomerase II (TopoII) decatenation, Assay 1
[17] = replicate Assay 2, read-out: IC50 Human Topoisomerase II (TopoII) decatenation, Assay 2
[18] = replicate Assay 1, read-out: IC50 S. aureus Topoisomerase IV decatenation, Assay 1
[19] = replicate Assay 2, read-out: IC50 S. aureus Topoisomerase IV decatenation, Assay 2
[20] = average of two replicate experiments, read-out: IC50 S. aureus Gyrase Supercoiling (average)
[21] = replicate Assay 1, read-out: IC50 S.aureus gyrase Supercoiling, Assay 1
[22] = replicate Assay 2, read-out: IC50 S.aureus gyrase Supercoiling, Assay 2

For `Cl.O=c1oc2ccc(F)cc2c2[nH]c(CN[C@H]3CC[C@H](n4c(=O)ccc5ccc(F)cc54)CC3)cc12` [Compound 6, 8-fluoro-2-({[trans-4-(7-fluoro-2-oxoquinolin-1(2H)-yl)cyclohexyl]amino}methyl)[1]benzopyrano[4,3-b]pyrrol-4(1H)-one hydrochloride], the IC50 (E. coli Topoisomerase IV; [9]) was 250 nM, the IC50 (E. coli Topoisomerase IV; [10]) was 270 nM and the IC50 (E. coli Topoisomerase IV; [11]) was 220 nM. For the same compound, the IC50 (E. coli DNA gyrase; [12]) was 130 nM, the IC50 (E. coli DNA gyrase; [13]) was 130 nM and the IC50 (E. coli DNA gyrase; [14]) was 120 nM. For the same compound, the MIC (E. coli TolC- mutant) was at most 0.016 µg/mL, the MIC [1] was 0.03 µg/mL and the MIC [2] was 0.03 µg/mL. It also gave an MIC (N. gonorrhoeae WHO L) of 0.03 µg/mL, an MIC (N. gonorrhoeae WHO N) of 0.03 µg/mL and an MIC (N. gonorrhoeae WHO K) of 0.06 µg/mL. The MIC range [3] was 0.008 to 0.06 µg/mL, the MIC50 [3] was 0.03 µg/mL and the MIC90 [3] was 0.06 µg/mL. For the same compound, the “MIC fold lower than that of ciprofloxacin” value (S. aureus ATCC 29213; S. aureus ATCC 29213) was “approximately 10 fold”, the MIC (S. aureus ATCC 29213) was at most 0.06 µg/mL and the IC50 (Human Topoisomerase II; [15]) was 10100 nM and 10000 nM. The IC50 (Human Topoisomerase II; [16]) was 13000 nM, the IC50 (Human Topoisomerase II; [17]) was 7300 nM and the IC50 [4] was 290 nM. It also gave an IC50 [4, 18] of 310 nM, an IC50 [4, 19] of 260 nM and an IC50 (S. aureus DNA gyrase; [20]) of 310 nM. For the same compound, the IC50 (S. aureus DNA gyrase; [21]) was 270 nM, the IC50 (S. aureus DNA gyrase; [22]) was 350 nM and the MIC50 [5] was 0.25 µg/mL. It also gave an MIC90 [5] of 0.25 µg/mL, an MIC [5] of 0.06 to 1 µg/mL and an MIC50 [6] of 0.12 µg/mL. It also gave an MIC90 [6] of 0.12 µg/mL, an MIC [6] of 0.06 to 0.12 µg/mL and an MIC (S. aureus BAA-1720) of at most 0.06 µg/mL. For the same compound, the MIC (S. pneumoniae ATCC 49619) was 0.12 µg/mL, the MIC (H. influenzae ATCC 49766) was 0.5 µg/mL and the MIC [7] was 8 µg/mL. It also gave an MIC (E. coli ATCC 25922) of 0.25 µg/mL, an MIC (E. faecalis ATCC 29212) of 0.25 µg/mL and an MIC (P. aeruginosa ATCC 27853) of 4 µg/mL.

For `Cl.O=c1oc2ccc(F)cc2c2[nH]c(CN[C@H]3CC[C@H](n4c(=O)ccc5ncc(F)cc54)CC3)cc12` [Compound 3, 8-fluoro-2-({[trans-4-(7-fluoro-2-oxo-1,5-naphthyridin-1(2H)-yl)cyclohexyl]amino}methyl)[1]benzopyrano[4,3-b]pyrrol-4(1H)-one hydrochloride], the IC50 (E. coli Topoisomerase IV; [9]) was under 100 nM, the IC50 (E. coli Topoisomerase IV; [10]) was under 100 nM and the IC50 (E. coli Topoisomerase IV; [11]) was under 100 nM. For the same compound, the IC50 (E. coli Topoisomerase IV; read-out: IC50 E. coli Topoisomerase IV decatenation (average), average of two replicate experiments) was under 100 nM, the IC50 (E. coli DNA gyrase; [12]) was under 100 nM and the IC50 (E. coli DNA gyrase; [13]) was under 100 nM. For the same compound, the IC50 (E. coli DNA gyrase; [14]) was under 100 nM, the IC50 (E. coli DNA gyrase; read-out: IC50 E. coli Gyrase Supercoiling (average), average of two replicate experiments) was under 100 nM and the MIC [8] was at most 0.016 µg/mL. It also gave an MIC (E. coli TolC- mutant) of at most 0.016 µg/mL, an MIC [1] of 0.016 µg/mL and an MIC [2] of at most 0.06 µg/mL. It also gave an MIC (N. gonorrhoeae WHO L) of 0.016 µg/mL, an MIC (N. gonorrhoeae WHO N) of 0.016 µg/mL and an MIC (N. gonorrhoeae WHO K) of 0.016 µg/mL. For the same compound, the MIC range [3] was 0.004 to 0.03 µg/mL, the MIC50 [3] was 0.016 µg/mL and the MIC90 [3] was 0.03 µg/mL. For the same compound, the MIC (S. aureus ATCC 29213) was 0.25 µg/mL, the IC50 (Human Topoisomerase II; [15]) was 56000 nM and the IC50 (Human Topoisomerase II; [16]) was 46000 nM. For the same compound, the IC50 (Human Topoisomerase II; [17]) was 66000 nM, the IC50 ([4]; average of two replicate experiments, read-out: IC50 S. aureus Topoisomerase IV decatenation (average)) was under 100 nM and the IC50 [4, 18] was under 100 nM. For the same compound, the IC50 [4, 19] was under 100 nM, the IC50 (S. aureus DNA gyrase; [20]) was under 100 nM and the IC50 (S. aureus DNA gyrase; [21]) was under 100 nM. It also gave an IC50 (S. aureus DNA gyrase; [22]) of under 100 nM, an MIC50 [5] of 0.12 µg/mL and an MIC90 [5] of 0.25 µg/mL. It also gave an MIC [5] of 0.06 to 2 µg/mL, an MIC50 [6] of 0.12 µg/mL and an MIC90 [6] of 0.12 µg/mL. The MIC [6] was 0.06 to 0.12 µg/mL, the MIC (S. aureus BAA-1720) was 0.12 µg/mL and the MIC (S. pneumoniae ATCC 49619) was 0.25 µg/mL. For the same compound, the MIC (H. influenzae ATCC 49766) was 0.12 µg/mL, the MIC [7] was 2 µg/mL and the MIC (E. coli ATCC 25922) was 0.5 µg/mL. For the same compound, the MIC (E. faecalis ATCC 29212) was 0.12 µg/mL and the MIC (P. aeruginosa ATCC 27853) was 4 µg/mL.
